One data set relates to OVCAR8. Nature of the data set: MTT cytotoxicity assay, OVCAR8. It counts as cell-based. The following applies: Homo sapiens, OVCAR-8, Ovarian. Here is the method: (§1) It was observed that SU093 was highly cytotoxic for all cell lines tested with IC50 values in the nanomolar range.
(§2) Furthermore, OVCAR8 cells with overexpressed (OV) and knockdown (KD) of GBP1 gene were created (FIG. 3, panel D) and cell viability experiments were performed on GBP1-WT (wild-type), GBP1-OV and GBP1-KD OVCAR8 cells at different doses of SU093.

The next data set deals with SCC-90 cells. Put plainly: Cell cycle analysis of SCC-90 cells, SU093/radiation combination. Type of data set: cell-based. The following applies: SCC-90, SU093 50 nM and/or 10 Gy, 24 h. An excerpt:
(§3) The potential for GBP1 inhibition and radiosensitzation in head and neck cancer cells was also investigated.

The next data set has as its system GBP1. Nature of the data set: Immunoblotting and cycloheximide chase of GBP1 protein in SCC-90 HNC cells. It counts as cell-based.
Excerpt: as §3

The next data set deals with B2M. Nature of the data set: B2M expression in SCC-90 cells. The conditions noted are these: SCC-90 cells treated with SU093. It counts as cell-based. An excerpt:
Down-regulation of Major Histocompatibility Complex class I molecules (MHC-I) expression is a widespread phenomenon used by tumor cells to escape antitumor T-cell-mediated immune responses. Reduction in B2-microglobulin (B2M, a molecule associated with MHC-I) helps cancer cells to hide them from immune system (Hicklin, D. J.; Marincola, F. M.; Ferrone, S., HLA class I antigen downregulation in human cancers: T-cell immunotherapy revives an old story. Molecular Medicine Today 1999, S (4), 178-186.) In experiments conducted herein, reduced expression B2M in GBP1-OV cells was observed (FIG. 1, panel F).

Another data set has as its system HEK293. Nature of the data set: MTT cytotoxicity assay, normal HEK293 cells. Type of data set: cell-based.
Excerpt: FIG. 3, panels A-E. FIG. 3, panel A illustrates the effects of SU093 on survival of human normal HEK293 cell line and ovarian cancer cell lines OVCAR8 & SKOV3 cells via MTT assay. FIG. 3, panel B illustrates the effect of SU093 on GBP1 and PIM1 expression in OVCAR8 cells. […] FIG. 3, panel D illustrates quantification of overexpression and knockdown of GBP1 gene in stably transfected OVCAR8 cells. FIG. 3, panel E illustrates cytotoxicity of SU093 as evaluated in GBP1-OV, GBP1-WT and GBP1-KD OVCAR8 via MTT assay.
as §2

Another data set deals with A549. Nature of the data set: MTT cytotoxicity assay, A549. The following applies: Homo sapiens, Lung. Type of data set: cell-based.
Excerpt: as §1

Data set [1] in a line: In vivo pharmacokinetics, plasma concentration by LCMS. The conditions noted are these: C57BL/6, mouse, C57BL6 female mice, single 10 mg/kg IP. Here is the method: FIG. 7, panel A illustrates in vivo PK studies, C57BL/6 mice. Drug concentration in plasma was quantified at different time points using LCMS after a single IP injection of SU093. FIG. 7, panel B illustrates the drug concentration in harvested ovaries and liver of C57BL/6 mice after 14 days of administration with SU093 (100 mg/kg) by daily IP injection.
To investigate the pharmacokinetics and toxicity of the subject GBP1 inhibitors, in vivo pharmacokinetic studies with SU093 were conducted and the drug concentration in mice plasma at different time points after injection was determined (e.g. after 5, 10, 30, 60, 120, 360 minutes after injection). Non-tumor-bearing C57BL6 female mice (n=3/group of each time point) were used for these studies and the drug was administered in a single dose of 10 mg/kg intrepertoneally (IP) at different time points. After each time point 150 microliters of blood was withdraw from retro orbital sinus from the respective group of anesthetized (isoflurane) mice. Plasma was separated from each blood sample and mixed with an equal volume of acetonitrile (w/v). Precipitated protein was separated by centrifugation at 12,000 RPM for 10 min at 4° C. Clear supernatant was analyzed for quantification of SU093 using liquid chromatography mass spectroscopy (LCMS).

A further data set relates to DU145. Put plainly: MTT cytotoxicity assay, DU145. Type of data set: cell-based. The following applies: Homo sapiens, DU-145, Prostate.
Excerpt: as §1

In a further data set the test system is OVCAR8 cells. Put plainly: Cell cycle analysis and cell cycle/cell death regulators in OVCAR8 cells. It counts as cell-based.
Excerpt: FIG. 4, panel A illustrates a histogram of cell cycle distribution of propidium iodide (PI)-stained cells. […] FIG. 4, panel C illustrates the effect of SU093 on cell cycle and cell death regulators analyzed by immunostaining. FIG. 4, panel D illustrates mitochondria stained with MitoTracker Red CMXRos and visualized by confocal microscopy indicating mitochondrial dysfunction in OVCAR8 cells. FIG. 4, panel E illustrates the effect of SU093 on active mitochondrial mass in OVCAR8 cells.
as §2
It has been previously established that GBP1 expression has a definitive role in the resistance towards radiation therapy and taxane-based chemotherapy. The GBP1 inhibitor SU093 was tested in combination with radiation and paclitaxel (a well known taxane-based chemotherapeutic drug) for its potential in overcoming radiation therapy and taxane resistance. […] A cell cycle analysis experiment for radiation was performed with SU093 and combination treatment (FIG. 5, panel B). […] One of the mechanisms through which a drug can sensitize the effect of radiation is its ability to block G2/M phase of the cell cycle (Leonard, C. E.; Chan, D. C.; Chou, T. C.; Kumar, R.; Bunn, P. A., Paclitaxel enhances in vitro radiosensitivity of squamous carcinoma cell lines of the head and neck. Cancer Research 1996, 56 (22), 5198-5204). […]

The values that follow come from patent US11771692B2, “N-hydroxyethyl didehydroazapodophyllotoxins as GBP1 inhibitors and methods of overcoming treatment resistance in cancer” (The Board of Trustees of the Leland Stanford Junior …, priority 2018, dated 2023).

Entries after “also recorded” stand apart in the source; their conditions may differ.

In the case of `COc1ccc2c(c1)N(CCO)C1=C(C(=O)OC1)C2c1ccccc1` (centres unmarked) [SU093], in the data set on OVCAR8, the IC50 was found to be 2.49 nM. In the data set with SCC-90 cells, the “cell cycle, SU093/radiation combination” value is recorded as “G2/M phase arrest followed by cell death; also recorded: increase in G2/M phase arrest, followed by apoptosis”. For the same compound, the “GBP1 protein degradation, cyclohexamide chase” value in the data set on GBP1 (SCC-90) was “degradation of GBP1 protein and reduction of its half-life”. Besides, in the data set on GBP1 (SCC-90, western blot, 24 h), the GBP1 protein expression result was “inhibition in GBP1 expression; also recorded: inhibited GBP1 protein expression”. The B2M expression entry in the data set with B2M is “induced expression of B2M”. Also, in the data set on HEK293, the “cytotoxicity for normal cell line” value was “no cytotoxicity”. Moreover, the concentration for half-maximal inhibition (IC50) with A549 was 2.48 nM. In data set [1], the Cmax came to 1600 ng/mL, the Tmax was 5 min and the half-life came to 60 min. In the data set with DU145, the midpoint of inhibition, the IC50, lay at 1.12 nM. In addition, the cell cycle distribution result in the data set with OVCAR8 cells (OVCAR8, SU093 alone) was “G1 phase arrest; also recorded: progression from G1 to S phase was markedly inhibited”. Also, the “cell cycle distribution, combination of SU093 and radiation” value in the data set with OVCAR8 cells (OVCAR8, combination with radiation) is “G2/M phase arrest leading to apoptosis; also recorded: G2/M phase arrest leading to apoptotic cell death”. In addition, the “cell cycle and cell death regulators” value in the data set with OVCAR8 cells (OVCAR8, cyclin D1, CDK2, Bax) was “reduction in cyclin D1 and CDK2 levels and elevation of the cell death regulator Bax”.
